The values below come from patent US11746098B2, “Proteasome activity enhancing compounds” (Proteostasis Therapeutics, Inc., priority 2018, dated 2023).

The target of this assay is USP14 (Homo sapiens, UniProt P54578). Description: USP14 Inhibition Assay. Type of assay: biochemical. Conditions: average value from a minimum of two experimental determinations, read-out: IC50 Category. The text has this: The activity of the compound described herein to inhibit USP14 can be measured using previously described methodology [B. H. Lee et al. Nature 2010, 467 (9), 179, the contents of which are expressly incorporated by reference herein].
Example 6: USP14 Inhibition Assay
As usually defined, the IC50 is the midpoint of a concentration-inhibition curve. As for `Cc1cc(Cl)cc(C)c1-n1ccc(C(=O)CN2CCCCC2)c1` [Compound 26, 1-(1-(4-Chloro-2,6-dimethylphenyl)-1H-pyrrol-3-yl)-2-(piperidin-1-yl)ethanone], the IC50 is above 5 µM.

On to `Cc1cc(C(=O)CN2CCC(O)CC2)c(C)n1-c1ccc(O)cc1` [Compound 20, 1-(1-(4-Hydroxyphenyl)-2,5-dimethyl-1H-pyrrol-3-yl)-2-(4-hydroxypiperidin-1-yl)ethanone], for which the IC50 is above 5 µM.

`Cc1c(C(=O)CN2CCC(O)CC2)c(C)n(-c2ccc(Cl)cc2)c1C` [Compound 139, 1-(1-(4-Chlorophenyl)-2,4,5-trimethyl-1H-pyrrol-3-yl)-2-(4-hydroxypiperidin-1-yl)ethanone]: the half-inhibitory concentration (IC50) lay within 0.5 to 5 µM.

With `Cc1cc(C(=O)CNCC2COC(C)(C)O2)c(C)n1-c1ccc(Cl)cc1` (stereo not shown) [Compound 40, 1-(1-(4-Chlorophenyl)-2,5-dimethyl-1H-pyrrol-3-yl)-2-(((2,2-dimethyl-1,3-dioxolan-4-yl)methyl)amino)ethanone], the IC50 was above 5 µM.

In the case of `Cc1cc(C(=O)CC2CCCCN2)c(C)n1-c1ccc(Cl)cc1` (stereo not shown) [Compound 71, 1-(1-(4-Chlorophenyl)-2,5-dimethyl-1H-pyrrol-3-yl)-2-(piperidin-2-yl)ethanone], the IC50 lay in the range of 0.5 to 5 µM.

On to `Cc1cc(C(=O)CN2CCC(O)CC2)n(C)c1-c1ccc(Cl)cc1` [Compound 95, 1-(5-(4-Chlorophenyl)-1,4-dimethyl-1H-pyrrol-2-yl)-2-(4-hydroxypiperidin-1-yl)ethanone], for which the IC50 was below 0.5 µM.

On to `CCCNC(=O)COC1CCN(CC(=O)c2cc(C)n(-c3ccc(Cl)cc3)c2C)CC1` [Compound 83, 2-((1-(2-(1-(4-Chlorophenyl)-2,5-dimethyl-1H-pyrrol-3-yl)-2-oxoethyl)piperidin-4-yl)oxy)-N-propylacetamide], for which the IC50 was below 0.5 µM.

In the case of `Cc1c(C(=O)CN2CCCCC2)cn(C)c1-c1ccc(Cl)cc1` [Compound 93, 1-(5-(4-Chlorophenyl)-1,4-dimethyl-1H-pyrrol-3-yl)-2-(piperidin-1-yl)ethanone], the IC50 was below 0.5 µM.

For the molecule `Cc1cc(C(=O)CN2CCCCC2)c(C)n1[C@H]1CC[C@@H](C(N)=O)CC1` [Compound 103, cis-4-(2,5-Dimethyl-3-(2-(piperidin-1-yl)acetyl)-1H-pyrrol-1-yl)cyclohexanecarboxamide], the IC50 was above 5 µM.

With `Cc1cc(C(=O)CN2CCCC2)c(C)n1-c1cc(Cl)cc(Cl)c1` [Compound 16, 1-(1-(3,5-Dichlorophenyl)-2,5-dimethyl-1H-pyrrol-3-yl)-2-(pyrrolidin-1-yl)ethanone], the IC50 is above 5 µM.

For the molecule `Cc1cc(C(=O)CNCCOCc2ccccc2)c(C)n1-c1ccc(Cl)cc1` [Compound 41, 2-((2-(Benzyloxy)ethyl)amino)-1-(1-(4-chlorophenyl)-2,5-dimethyl-1H-pyrrol-3-yl)ethanone], the IC50 is above 5 µM.

Regarding `Cc1cc(C(=O)CN2CCCCC2)c(C)n1[C@H]1CC[C@H](C(=O)O)CC1` [Compound 121, trans-4-(2,5-Dimethyl-3-(2-(piperidin-1-yl)acetyl)-1H-pyrrol-1-yl)cyclohexane-1-carboxylic acid], the IC50 is above 5 µM.

Consider `Cc1cc(C(=O)CN(C)CCCCC(N)C(=O)O)c(C)n1-c1ccc(C#N)cc1` (stereo not shown) [Compound 138, 2-Amino-6-((2-(1-(4-cyanophenyl)-2,5-dimethyl-1H-pyrrol-3-yl)-2-oxoethyl)(methyl)amino)hexa-noic acid], for which the concentration for half-maximal inhibition (IC50) was 0.5 to 5 µM.

Consider `Cc1cc(C(=O)CN2CCC(O)CC2)c(C)n1-c1ccc(OC(F)(F)F)cc1` [Compound 62, 1-(2,5-dimethyl-1-(4-(trifluoromethoxy)phenyl)-1H-pyrrol-3-yl)-2-(4-hydroxypiperidin-1-yl)ethanone], for which the IC50 was 0.5 to 5 µM.

On to `Cc1c(C(=O)CN2CCCCC2)cc(C2CC2)n1-c1ccc(Cl)cc1` [Compound 90, 1-(1-(4-Chloropheny1)-5-cyclopropyl-2-methyl-1H-pyrrol-3-yl)-2-(piperidin-1-yl)ethanone], for which the IC50 is below 0.5 µM.

Regarding `Cc1cc(C(=O)CN2CCC(N(C)C)C2)c(C)n1-c1ccc(Cl)cc1` (stereo not shown) [Compound 55, 1-(1-(4-Chlorophenyl)-2,5-dimethyl-1H-pyrrol-3-yl)-2-(3-(dimethylamino)pyrrolidin-1-yl)ethanone], the IC50 lay within 0.5 to 5 µM.

`Cc1cc(C(=O)CN[C@H](C)C2CCCCC2)c(C)n1-c1ccc(Cl)cc1` [Compound 11, (R)-1-(1-(4-Chlorophenyl)-2,5-dimethyl-1H-pyrrol-3-yl)-2-((1-cyclohexylethyl)amino)ethan-one]: the IC50 is above 5 µM.

Regarding `Cc1cc(C(=O)CN2CCCCC2)c(C)n1-c1cc(F)cc(F)c1` [Compound 14, 1-(1-(3,5-Difluorophenyl)-2,5-dimethyl-1H-pyrrol-3-yl)-2-(piperidin-1-yl)ethanone], the IC50 was above 5 µM.

On to `Cc1cc(C(=O)CN2CCC(OCC(=O)NC(C)(C)C)CC2)c(C)n1-c1ccc(Cl)cc1` [Compound 84, N-(tert-Butyl)-2-((1-(2-(1-(4-chlorophenyl)-2,5-dimethyl-1H-pyrrol-3-yl)-2-oxoethyl)piperidin-4-yl)oxy)acetamide], for which the IC50 was below 0.5 µM.

For `Cc1cc(C(=O)C[n+]2ccccc2)c(C)n1-c1ccc(Cl)cc1` [Compound 99, 1-(2-(1-(4-Chlorophenyl)-2,5-dimethyl-1H-pyrrol-3-yl)-2-oxoethyl)pyridin-1-ium Chloride], the IC50 was below 0.5 µM.

On to `Cc1cc(C(=O)CN2CCCC(CNC(=O)OC(C)(C)C)C2)c(C)n1-c1ccc(C#N)cc1` (stereo not shown) [Compound 158, tert-butyl ((1-(2-(1-(4-cyanophenyl)-2,5-dimethyl-1H-pyrrol-3-yl)-2-oxoethyl)piperidin-3-yl)methyl)carbamate], for which the IC50 was below 0.5 µM.

Regarding `Cc1cc(C(=O)CN2CCCCC2)c(C)n1[C@H]1CC[C@H](C#N)CC1` [Compound 143, trans-4-(2,5-Dimethyl-3-(2-(piperidin-1-yl)acetyl)-1H-pyrrol-1-yl)cyclohexane-1-carbonitrile], the IC50 was 0.5 to 5 µM.

Take `Cc1cc(C(=O)CNCCO)c(C)n1-c1ccc(C#N)cc1` [Compound 77, 4-(3-(2-((2-Hydroxyethyl)amino)acetyl)-2,5-dimethyl-1H-pyrrol-1-yl)benzonitrile]: the IC50 lay within 0.5 to 5 µM.

Regarding `CCCNC(=O)OC1CCCN(CC(=O)c2cc(C)n(-c3ccc(Cl)cc3)c2C)C1` (stereo not shown) [Compound 54, 1-(2-(1-(4-Chlorophenyl)-2,5-dimethyl-1H-pyrrol-3-yl)-2-oxoethyl)piperidin-3-yl propylcarbamate], the IC50 lay in the range of 0.5 to 5 µM.

Consider `Cc1cc(C(=O)CC2CCCCN2C)c(C)n1-c1ccc(Cl)cc1` (stereo not shown) [Compound 72, 1-(1-(4-Chlorophenyl)-2,5-dimethyl-1H-pyrrol-3-yl)-2-(1-methylpiperidin-2-yl)ethanone], for which the IC50 lay in the range of 0.5 to 5 µM.

Turning to `Cc1cc(C(=O)CNC2CC2)c(C)n1-c1ccc(Cl)cc1` [Compound 48, 1-(1-(4-Chlorophenyl)-2,5-dimethyl-1H-pyrrol-3-yl)-2-(cyclopropylamino)ethanone], the IC50 is 0.5 to 5 µM.

In the case of `Cc1cc(C(=O)CN2CCC(O)CC2)c(C)n1-c1ccc(F)c(F)c1` [Compound 70, 1-(1-(3,4-Difluorophenyl)-2,5-dimethyl-1H-pyrrol-3-yl)-2-(4-hydroxypiperidin-1-yl)ethanone], the IC50 lay in the range of 0.5 to 5 µM.

For `Cc1cc(C(=O)CN2CCC(OCc3ccccc3)C2)c(C)n1-c1ccc(Cl)cc1` (stereo not shown) [Compound 49, 2-(3-(Benzyloxy)pyrrolidin-1-yl)-1-(1-(4-chlorophenyl)-2,5-dimethyl-1H-pyrrol-3-yl)ethanone], the IC50 was in the range of 0.5 to 5 µM.

As to `Cc1cc(C(=O)CN2CCC(O)CC2)c(C)n1-c1cc(F)cc(F)c1` [Compound 15, 1-(1-(3,5-Difluorophenyl)-2,5-dimethyl-1H-pyrrol-3-yl)-2-(4-hydroxypiperidin-1-yl)ethanone], the IC50 was above 5 µM.

For the molecule `Cc1cc(C(=O)CN2CCCCC2)c(C)n1-c1ccc(C(F)(F)F)cc1` [Compound 68, 1-(2,5-Dimethyl-1-(4-(trifluoromethyl)phenyl)-1H-pyrrol-3-yl)-2-(piperidin-1-yl)ethanone], the IC50 fell in the range of 0.5 to 5 µM.

On to `Cc1cc(C(=O)C[N+]2(C)CCCCC2)c(C)n1-c1ccc(Cl)cc1` [Compound 44, 1-(2-(1-(4-Chlorophenyl)-2,5-dimethyl-1H-pyrrol-3-yl)-2-oxoethyl)-1-methylpiperidin-1-ium Iodide], for which the IC50 is above 5 µM.

For the molecule `Cc1cc(C(=O)CN2CCCCC2)c(C)n1-c1ccc(C(=O)OCc2ccccc2)cc1` [Compound 110, trans-Benzyl 4-(2,5-dimethyl-3-(2-(piperidin-1-yl)acetyl)-1H-pyrrol-1-yl)benzoate], the IC50 was above 5 µM.

Turning to `Cc1cc(C(=O)CN2CCCCC2)c(C)n1[C@H]1CC[C@@H](C#N)CC1` [Compound 105, cis-(2,5-Dimethyl-3-(2-(piperidin-1-yl)acetyl)-1H-pyrrol-1-yl)cyclohexanecarbonitrile], the IC50 was above 5 µM.

As to `Cc1cc(C(=O)CN2CCCCC2)c(C)n1-c1ccc(OC(F)(F)F)cc1` [Compound 58, 1-(2,5-Dimethyl-1-(4-(trifluoromethoxy)phenyl)-1H-pyrrol-3-yl)-2-(piperidin-1-yl)ethanone], the half-inhibitory concentration (IC50) fell in the range of 0.5 to 5 µM.

For `Cc1cc(C(=O)CN2CCCCC2)c(C)n1-c1ccc(S(C)(=O)=O)cc1` [Compound 12, 1-(2,5-Dimethyl-1-(4-(methylsulfonyl)phenyl)-1H-pyrrol-3-yl)-2-(piperidin-1-yl)ethanone], the IC50 is above 5 µM.

With `Cc1cc(C(=O)CNCC2COC(C)(C)O2)c(C)n1-c1ccc(C#N)cc1` (stereo not shown) [Compound 102, 4-(3-(2-(((2,2-Dimethyl-1,3-dioxolan-4-yl)methyl)amino)acetyl)-2,5-dimethyl-1H-pyrrol-1-yl)benzonitrile], the IC50 is above 5 µM.

With `Cc1cc(C(=O)CN2CCCCC2)c(C)n1C1CCC(Cl)(Cl)CC1` [Compound 97, 1-(1-(4,4-Dichlorocyclohexyl)-2,5-dimethyl-1H-pyrrol-3-yl)-2-(piperidin-1-yl)ethanone], the IC50 was below 0.5 µM.
